Test results from publication PMC3762062, “Cloning, overexpression and biocatalytic exploration of a novel Baeyer-Villiger monooxygenase from Aspergillus fumigatus Af293” (AMB Express, 2013).
Read-outs that look alike come from different tables or passages of the source.

Legend:
[1] = target: T1, BVMOAf1 (PTDH-BVMOAf1) (Aspergillus fumigatus, UniProt Q4WAZ0); test: NADPH consumption at […] nm; type: biochemical; settings: air-saturated 50 mM Tris/HCl pH 8.0, 25°C
T1 construct: gene psoF; Truncated N-terminal BVMO domain (1614 bp, 367 C-terminal residues of the 905 deleted); pCRE2 vector, E. coli TOP10; fusion kept; natural Gln in place of His in the BVMO motif (H173Q)
T1 sequence (Q4WAZ0 1-538): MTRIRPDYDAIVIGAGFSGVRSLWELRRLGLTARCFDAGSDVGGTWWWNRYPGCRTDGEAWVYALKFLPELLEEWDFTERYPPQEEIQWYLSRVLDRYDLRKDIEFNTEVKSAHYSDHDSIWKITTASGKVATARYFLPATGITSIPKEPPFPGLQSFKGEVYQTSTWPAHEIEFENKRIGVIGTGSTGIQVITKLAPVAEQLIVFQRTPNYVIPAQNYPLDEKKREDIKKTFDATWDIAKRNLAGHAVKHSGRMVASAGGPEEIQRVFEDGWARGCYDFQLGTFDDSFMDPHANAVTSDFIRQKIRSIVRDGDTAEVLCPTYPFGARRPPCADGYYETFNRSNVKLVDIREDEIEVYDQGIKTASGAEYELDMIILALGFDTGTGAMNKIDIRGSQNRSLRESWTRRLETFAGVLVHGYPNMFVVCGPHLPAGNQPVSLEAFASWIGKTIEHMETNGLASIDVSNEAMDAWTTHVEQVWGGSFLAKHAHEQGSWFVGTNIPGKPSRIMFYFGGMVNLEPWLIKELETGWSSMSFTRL

[2] = target: T1, BVMOAf1 (PTDH-BVMOAf1); test: UV-Vis absorption of purified holo flavoprotein, FAD release by SDS; type: binding; settings: FAD 100 μM in lysis buffer; Tris/HCl pH 8.0
[3] = test system: CCSCc1ccccc1; test: purified protein; type: biochemical, Aspergillus fumigatus; settings: 100 μM NADPH, air-saturated 50 mM Tris/HCl pH 8.0, 25°C
[4] = 100 μM NADPH, read-out: K M (μ M )

**Q.** For `NC(=O)C1=CN([C@@H]2O[C@H](COP(=O)(O)OP(=O)(O)OC[C@H]3O[C@@H](n4cnc5c(N)ncnc54)[C@H](O)[C@@H]3O)[C@@H](O)[C@H]2O)C=CC1`, which Km [1, 4] is on record?
**A.** The Km was 118.8 ± 0.1 µM.

**Q.** With `Cc1cc2nc3c(=O)[nH]c(=O)nc-3n(C[C@H](O)[C@H](O)[C@H](O)COP(=O)(O)OP(=O)(O)OC[C@H]3O[C@@H](n4cnc5c(N)ncnc54)[C@H](O)[C@@H]3O)c2cc1C` [FAD] as the compound, how does the “UV-Vis absorption of purified holo flavoprotein, FAD release by SDS” value [2] read?
**A.** Its value is “yellow fractions containing FAD-bound protein”.

**Q.** With `NC(=O)C1=CN([C@@H]2O[C@H](COP(=O)(O)OP(=O)(O)OC[C@H]3O[C@@H](n4cnc5c(N)ncnc54)[C@H](OP(=O)(O)O)[C@@H]3O)[C@@H](O)[C@H]2O)C=CC1` [NADPH] as the compound, how does the Km ([1]; rac-bicyclo[3.2.0]hept-2-en-6-one 2.0 mM (typical mixture)) read?
**A.** Its Km is less than 5 µM.

**Q.** With `NC(=O)C1=CN([C@@H]2O[C@H](COP(=O)(O)OP(=O)(O)OC[C@H]3O[C@@H](n4cnc5c(N)ncnc54)[C@H](OP(=O)(O)O)[C@@H]3O)[C@@H](O)[C@H]2O)C=CC1` [[drawing 5]] as the compound, how does the Km [1, 4] read?
**A.** Its Km is 179.8 ± 0.1 µM.

**Q.** What does the source list for “BVMOAf1 (PTDH-BVMOAf1) (Aspergillus fumigatus Af293)”?
**A.** Km [3]: 23.5 ± 0.1 µM; kcat [3]: 0.47 ± 0.04 s⁻¹; kcat/Km [3]: 20000 M⁻¹ s⁻¹
